Source: patent publication US5169838A, “Benzopyranone-β-D-thioxylosides and their use in therapy” (Fournier Industrie et Sante, priority 1989, dated 1992)

Assay: venous thrombosis (venous stasis under hypercoagulation with activated factor X, Wessler technique)
Format: in vivo, male Wistar rats
Conditions: po, administered orally, rat, thrombosis induced 4 hours after treatment, thrombus weighed
Procedure: The study is performed on unfasted male Wistar rats weighing 250 to 280 g, divided up into groups of 10 animals each. The test products are administered orally as a suspension in PEG 400. A thrombosis is induced 4 hours after this treatment and the thrombus formed is removed and weighed.

Q: For `CCCc1cc(=O)oc2cc(O[C@@H]3SC[C@@H](OC(C)=O)[C@H](OC(C)=O)[C@H]3OC(C)=O)ccc12` [Example 5a, 2-oxo-4-propyl-2H-1-benzopyran-7-yl 2,3,4-tri-O-acetyl-5-thio-β-D-xylopyranoside], which inhibition in vivo at 3 mg/kg is on record?
A: The inhibition in vivo at 3 mg/kg was 46%.

Q: Which inhibition in vivo at 3 mg/kg does the source give for `Cc1cc(=O)c2ccc(S[C@@H]3SC[C@@H](O)[C@H](O)[C@H]3O)cc2o1` [Example 23, 2-methyl-4-oxo-4H-1-benzopyran-7-yl 1,5-dithio-β-D-xylopyranoside] here?
A: The inhibition in vivo at 3 mg/kg was 26%.

Q: With `Cc1c(Cl)c(=O)oc2cc(S[C@@H]3SC[C@@H](O)[C@H](O)[C@H]3O)ccc12` [Example 12, 3-chloro-4-methyl-2-oxo-2H-1-benzopyran-7-yl 1,5-dithio-β-D-xylopyranoside] as the compound, how does the inhibition in vivo at 3 mg/kg read?
A: The inhibition in vivo at 3 mg/kg was 65%.

Q: With `CC(=O)O[C@@H]1[C@@H](OC(C)=O)[C@H](OC(C)=O)CS[C@H]1Oc1ccc2c(C)c(-c3ccccc3)c(=O)oc2c1` [Example 18a, 4-methyl-2-oxo-3-phenyl-2H-1-benzopyran-7-yl 2,3,4-tri-O-acetyl-5-thio-β-D-xylopyranoside] as the compound, how does the inhibition in vivo at 3 mg/kg read?
A: The inhibition in vivo at 3 mg/kg was 20%.

Q: Which inhibition in vivo at 3 mg/kg does the source give for `Cc1cc(=O)oc2ccc(S[C@@H]3SC[C@@H](O)[C@H](O)[C@H]3O)cc12` [Example 10, 4-methyl-2-oxo-2H-1-benzopyran-6-yl 1,5-dithio-β-D-xylopyranoside] here?
A: The inhibition in vivo at 3 mg/kg was 37%.

Q: For `O=c1cc(C(F)(F)F)c2ccc(O[C@@H]3SC[C@@H](O)[C@H](O)[C@H]3O)cc2o1` [Example 3, 4-trifluoromethyl-2-oxo-2H-1-benzopyran-7-yl 5-thio-β-D-xylopyranoside], which inhibition in vivo at 3 mg/kg is on record?
A: Its inhibition in vivo at 3 mg/kg is 80%.

Q: Which inhibition in vivo at 3 mg/kg does the source give for `Cc1cc(=O)oc2cc(S[C@@H]3SC[C@@H](O)[C@H](O)[C@H]3O)ccc12` [Example 8, 4-methyl-2-oxo-2H-1-benzopyran-7-yl 1,5-dithio-β-D-xylopyranoside] here?
A: The inhibition in vivo at 3 mg/kg was 46%.

Q: Which inhibition in vivo at 3 mg/kg does the source give for `CC(=O)O[C@@H]1[C@@H](OC(C)=O)[C@H](OC(C)=O)CS[C@H]1Oc1ccc2c(C)cc(=O)oc2c1` [Example 16a, 4-methyl-2-oxo-2H-1-benzopyran-7-yl 2,3,4-tri-O-acetyl-5-thio-β-D-xylopyranoside] here?
A: Its inhibition in vivo at 3 mg/kg is 63%.

Q: For `Cc1cc(=O)c2cc(O[C@@H]3SC[C@@H](O)[C@H](O)[C@H]3O)ccc2o1` [Example 24, 2-methyl-4-oxo-4H-1-benzopyran-6-yl 5-thio-β-D-xylopyranoside], which inhibition in vivo at 3 mg/kg is on record?
A: The inhibition in vivo at 3 mg/kg was 36%.

Q: For `O=c1cc(-c2ccccc2)oc2cc(O[C@@H]3SC[C@@H](O)[C@H](O)[C@H]3O)ccc12` [Example 25, 4-oxo-2-phenyl-4H-1-benzopyran-7-yl 5-thio-β-D-xylopyranoside], which inhibition in vivo at 3 mg/kg is on record?
A: The inhibition in vivo at 3 mg/kg was 28%.
